From patent publication US11077113B2, “6-aryl-4-morpholin-1-ylpyridone compounds useful for the treatment of cancer and diabetes” (priority 2016, dated 2021)

Tests used:
[1] = test system: autophagy in HOS cells; assay: High Content Screening Autophagy Assay (GFP-LC3 foci); assay type: cell-based; settings: Homo sapiens; HOS cells expressing GFP-LC3; autophagy activated with KU-0063794 500 nM plus Bafilomycin A1 5 nM; 6 hours; foci area per cell; read-out: Median IC50 μM Cellular assay
Procedure: High Content Screening Autophagy Assay
Human osteosarcoma cells (HOS) stably expressing a Green Fluorescent Protein (GFP) tagged LC3 (GFP-LC3) were used to determine the inhibitory effect on autophagy of proprietary compounds. For that purpose, autophagy was activated by using the mTOR inhibitor KU-0063794 at 500 nM in the presence of Bafilomycin A1 (Sigma-Aldrich) at 5 nM. Shortly, cells were plated overnight in clear bottom 96-well plates in DMEM-High Modified media (Hi-Clone Cat #SH30285.01). At the start of the experiment, the media was removed and replaced with fresh media containing the mTOR inhibitor, Bafilomycin A1 and the vehicle or a test compound as indicated. After 6 hours the media was removed, cells were washed twice with ice-cold phosphate buffered saline (PBS) and fixed with 4% paraformaldehyde for 20 minutes at room temperature. Then the cells were washed twice with ice-cold PBS before adding Hoechst 33342 at 1 μg/ml in PBS for nuclear staining. After incubation overnight at 4° C., cells were washed once with PBS to remove the excess of dye and 100 μl of PBS was added to each well. Images were acquired at 20× magnification, 6 images per well, using the ImageXpress automated microscope (Molecular Devices Inc.) and analyzed with MetaXpress software to identify LC3-GFP foci. Foci area per cell values were used to generate dose response curves and IC50 calculated using non-linear fitting analysis in GraphPad Prism software.
The results of the assay are shown in Table 2 (Median IC50 μM Cellular assay).

[2] = biological target: Vps34 enzyme (Homo sapiens (Human), UniProt Q8NEB9); assay: Vps34 Biochemical Assay (Adapta TR-FRET); settings: 20 μM ATP and 200 μM PI:PS in substrate mix, 1 h at room temperature, read-out: Median IC50 μM Adapta
Procedure: Dilution series of compounds of the invention were prepared in DMSO at 100 times the final assay concentration (n1=n0/3 in 10 points). The compounds were further diluted to 4 times the assay concentration in assay buffer (Life technologies buffer Q, PV5125, diluted 5 times supplemented with 2 mM DTT and 2 mM MnCl2). 2.5 μl of the diluted compounds were added to a 384 well assay plate followed by 2.5 μl of 16.5 nM Vps34 enzyme (Life technologies, PV5126). Enzyme and compounds were preincubated at rt for 15 min. Then 5 μl of substrate mix containing 20 μM ATP (Life technologies, PV3227) and 200 μM PI:PS substrate (Life technologies, PV5122) in assay buffer was added to the wells containing compound and enzyme and mixing was performed by pipetting several times. The reaction was incubated at room temperature for 1 h. Then 5 μl stop-detection mix, prepared as described in the adapta kinase assay kit instructions (Life technologies, PV5099) containing Adapta Eu-anti-ADP antibody (2.3 nM), Alexa Fluor 647 ADP tracer (9 nM) and EDTA (30 mM) in TR-FRET buffer, was added to quench the reaction. Mixing was performed by pipetting several times. The assay plate was then incubated at room temperature for 30 min and read with Artemis micro plate reader. Percent inhibition of the compounds as compared to DMSO treated control samples was calculated. By the use of Dotmatics software compound concentration versus percent inhibition was fitted to generate IC50 values.

Sequence of Vps34 enzyme (Q8NEB9 whole entry): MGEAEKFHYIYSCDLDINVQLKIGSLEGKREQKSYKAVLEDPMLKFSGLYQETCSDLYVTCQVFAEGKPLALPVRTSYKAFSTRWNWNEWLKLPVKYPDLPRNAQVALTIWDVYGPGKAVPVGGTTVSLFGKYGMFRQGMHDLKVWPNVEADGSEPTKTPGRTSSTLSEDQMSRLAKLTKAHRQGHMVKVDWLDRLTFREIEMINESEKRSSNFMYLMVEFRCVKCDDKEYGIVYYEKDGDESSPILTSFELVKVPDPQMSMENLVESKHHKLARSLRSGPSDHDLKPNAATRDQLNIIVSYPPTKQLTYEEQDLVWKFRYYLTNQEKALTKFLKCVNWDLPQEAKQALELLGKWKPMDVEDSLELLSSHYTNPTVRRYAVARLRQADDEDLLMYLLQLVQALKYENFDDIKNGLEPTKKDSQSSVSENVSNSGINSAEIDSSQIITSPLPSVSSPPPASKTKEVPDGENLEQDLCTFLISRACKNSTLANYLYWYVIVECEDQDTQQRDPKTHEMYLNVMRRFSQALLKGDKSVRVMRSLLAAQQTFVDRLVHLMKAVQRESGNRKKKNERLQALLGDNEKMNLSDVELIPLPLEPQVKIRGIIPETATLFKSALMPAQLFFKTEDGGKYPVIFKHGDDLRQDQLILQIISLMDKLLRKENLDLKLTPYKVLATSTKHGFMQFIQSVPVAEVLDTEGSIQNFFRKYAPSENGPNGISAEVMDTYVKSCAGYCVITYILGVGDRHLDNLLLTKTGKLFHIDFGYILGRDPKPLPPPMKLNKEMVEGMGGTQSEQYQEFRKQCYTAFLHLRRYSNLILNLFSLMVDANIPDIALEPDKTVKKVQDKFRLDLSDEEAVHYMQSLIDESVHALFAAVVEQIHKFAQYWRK

O=c1cc(N2CCOCC2)cc(-c2ccccc2Cl)[nH]1 [Example 1, 6-(2-chlorophenyl)-4-morpholino-1H-pyridin-2-one]
IC50 [1]: 2 µM
IC50 [2]: 0.03 µM

Cn1c(-c2ccccc2Cl)cc(N2CCOCC2)cc1=O [Example 2, 6-(2-chlorophenyl)-1-methyl-4-morpholino-pyridin-2-one]
IC50 [1]: 3 µM
IC50 [2]: 0.05 µM

CC1COCCN1c1cc(-c2ccccc2Cl)[nH]c(=O)c1 (stereo not drawn) [Example 3, 6-(2-chlorophenyl)-4-(3-methylmorpholin-4-yl)-1H-pyridin-2-one]
IC50 [1]: 0.7 µM
IC50 [2]: 0.01 µM

CC1COCCN1c1cc(-c2ccccc2Cl)n(C)c(=O)c1 (stereo not drawn) [Example 4, 6-(2-chlorophenyl)-1-methyl-4-(3-methylmorpholin-4-yl)pyridin-2-one]
IC50 [1]: 1 µM
IC50 [2]: 0.02 µM

Cc1ccncc1-c1cc(N2CCOCC2C)cc(=O)[nH]1 (stereo not drawn) [Example 5, 4-(3-methylmorpholin-4-yl)-6-(4-methyl-3-pyridyl)-1H-pyridin-2-one]
IC50 [1]: 14 µM
IC50 [2]: 0.1 µM

CC1COCCN1c1cc(-c2cncnc2)[nH]c(=O)c1 (stereo not drawn) [Example 6, 4-(3-methylmorpholin-4-yl)-6-pyrimidin-5-yl-1H-pyridin-2-one]
IC50 [1]: 14 µM
IC50 [2]: 1 µM

CC1COCCN1c1cc(-c2ccccc2-c2ccccc2)[nH]c(=O)c1 (stereo not drawn) [Example 7, 4-(3-methylmorpholin-4-yl)-6-(2-phenylphenyl)-1H-pyridin-2-one]
IC50 [2]: 0.06 µM

C[C@@H]1COCCN1c1cc(-c2cc(F)ccc2Cl)[nH]c(=O)c1 [Example 8, 6-(2-chloro-5-fluoro-phenyl)-4-[(3R)-3-methylmorpholin-4-yl]-1H-pyridin-2-one]
IC50 [1]: 1 µM
IC50 [2]: 0.01 µM

Cc1ccccc1-c1cc(N2CCOC[C@H]2C)cc(=O)[nH]1 [Example 9, 4-[(3R)-3-methylmorpholin-4-yl]-6-(o-tolyl)-1H-pyridin-2-one]
IC50 [2]: 0.03 µM

C[C@@H]1COCCN1c1cc(-c2cccnc2C(F)(F)F)[nH]c(=O)c1 [Example 10, 4-[(3R)-3-methylmorpholin-4-yl]-6-[2-(trifluoromethyl)-3-pyridyl]-1H-pyridin-2-one]
IC50 [1]: 0.09 µM
IC50 [2]: 0.02 µM

C[C@@H]1COCCN1c1cc(-c2ccccc2Cl)[nH]c(=O)c1 [Example 11, 6-(2-chlorophenyl)-4-[(3R)-3-methylmorpholin-4-yl]-1H-pyridin-2-one]
IC50 [1]: 0.6 µM
IC50 [2]: 0.007 µM

C[C@@H]1COCCN1c1cc(-c2ccccc2C(F)(F)F)[nH]c(=O)c1 [Example 12, 4-[(3R)-3-methylmorpholin-4-yl]-6-[2-(trifluoromethyl)phenyl]-1H-pyridin-2-one]
IC50 [1]: 0.6 µM
IC50 [2]: 0.007 µM

C[C@@H]1COCCN1c1cc(-c2ccoc2)[nH]c(=O)c1 [Example 13, 6-(3-furyl)-4-[(3R)-3-methylmorpholin-4-yl]-1H-pyridin-2-one]
IC50 [2]: 0.2 µM

Cc1cscc1-c1cc(N2CCOC[C@H]2C)cc(=O)[nH]1 [Example 14, 4-[(3R)-3-methylmorpholin-4-yl]-6-(4-methyl-3-thienyl)-1H-pyridin-2-one]
IC50 [2]: 0.03 µM

C[C@@H]1COCCN1c1cc(-c2ccccc2NS(C)(=O)=O)[nH]c(=O)c1 [Example 15, N-[2-[4-[(3R)-3-methylmorpholin-4-yl]-6-oxo-1H-pyridin-2-yl]phenyl]methanesulfonamide]
IC50 [2]: 0.2 µM

Cc1ccc2ncccc2c1-c1cc(N2CCOC[C@H]2C)cc(=O)[nH]1 [Example 16, 4-[(3R)-3-methylmorpholin-4-yl]-6-(6-methyl-5-quinolyl)-1H-pyridin-2-one]
IC50 [2]: 0.2 µM

C[C@@H]1COCCN1c1cc(-c2ccc(-c3ccn[nH]3)cc2)[nH]c(=O)c1 [Example 17, 4-[(3R)-3-methylmorpholin-4-yl]-6-[4-(1H-pyrazol-5-yl)phenyl]-1H-pyridin-2-one]
IC50 [2]: 0.2 µM
